Experimental findings from patent US20220402917A1, “COMPOUND AS SMALL MOLECULE INHIBITOR PD-1/PD-L1 AND APPLICATION THEREOF” (MEDSHINE DISCOVERY INC., priority 2019, published 2022) are described below.

pIC50: −log10 of the molar value.

Assay [1] deals with T1, PD-L1 in MDA-MR-231 cells (Homo sapiens, UniProt Q9NZQ7).
T1 construct: endogenous in cells; host or cells: MDA-MB-231
Briefly: Effect on expression level of PD-L1 in MDA-MR-231 cells (FACS). It counts as cell-based. Conditions: 24 hours incubation, FACS detection of cell surface PD-L1. In a few lines: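 MDA-MB-231 cells (1×10^5/well) were incubated 24 h at 37 °C with 5-fold serially diluted compounds. Cells were detached with 10 mM EDTA, then stained with anti-human PD-L1 and LIVE/DEAD dye (4 °C, 30 min) and fixed. Surface PD-L1 was measured by flow cytometry.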

A further assay deals with PD1/PD-L1 (Homo sapiens, UniProt Q9NZQ7). Briefly: PD-1/PD-L1 homogeneous time-resolved fluorescence (HTRF) binding experiment. Conditions: HTRF (TR-FRET), PD-L1-biotin, PD1-Eu. Details: purchased BPS Biosciences. An excerpt: Experimental Example 1: PD-1/PD-L1 Homogenouse Time-Resolved Fluorescence (HTRF) Binding Experiment
When the PD-1 molecule as the donor is very close to the PD-L1 molecule as the acceptor, the donor molecule will transfer the energy to the receptor molecule, which in turn causes the receptor molecule to emit fluorescence. The ability of small molecules to prevent the binding of PD-L1 to PD-1 can be tested by detecting the intensity of fluorescence. A homogeneous time-resolved fluorescence (HTRF) binding experiment is used to detect the ability of the compounds of the present disclosure to inhibit the binding of PD-1/PD-L1.
PD1/PD-L1 TR-FRET detection kit was purchased from BPS Biosciences. Nivo multi-label analyzer (PerkinElmer).
PD1-Eu, Dye-labeled acceptor, PD-L1-biotin and compounds to be tested were diluted with the buffer in the kit. The compounds to be tested were subjected to 5-fold dilution to eight concentration gradients with a row gun. That is, from 40 μM to 0.5 nM, the DMSO concentration was 4%, and a double-well experiment was set up. 5 μL of inhibitor with each concentration gradient were added to the microwell plate, and 5 μL buffer containing 4% DMSO and 5 μL PD-L1-biotin (PD-L1-biotin) (60 nM) were added into well with the maximum signal (Max) and the well with the minimum signal (Min), only 5 μL of buffer was added to the well with the minimum signal (Min), and the incubation was conducted at 25° C. for 20 minutes. After the incubation was completed, 5 μL of diluted PD1-Eu (10 nM) and […] were added to each well. The reaction system was placed at 25° C. for 90 minutes. The TR-FRET signal was read by a multi-label analyzer after the reaction was completed.
Using the equation (sample−Min)/(Max−Min)×100% to convert the raw data into inhibition rate, and the IC50 value can be obtained by curve fitting with four parameters (obtained from log(inhibitor) vs. response—Variable slope mode in GraphPad Prism). Table 1 provides the inhibitory activity of the compounds of the examples of the present disclosure on PD1/PD-L1 binding

Sequence of PD1/PD-L1 (Q9NZQ7 19-239 limits assumed): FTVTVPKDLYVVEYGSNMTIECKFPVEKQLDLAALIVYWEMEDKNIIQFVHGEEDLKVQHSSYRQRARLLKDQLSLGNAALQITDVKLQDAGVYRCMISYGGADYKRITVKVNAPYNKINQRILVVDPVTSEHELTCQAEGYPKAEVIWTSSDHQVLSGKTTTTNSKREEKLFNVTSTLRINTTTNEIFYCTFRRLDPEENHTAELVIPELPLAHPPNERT
T1 sequence (Q9NZQ7 19-290): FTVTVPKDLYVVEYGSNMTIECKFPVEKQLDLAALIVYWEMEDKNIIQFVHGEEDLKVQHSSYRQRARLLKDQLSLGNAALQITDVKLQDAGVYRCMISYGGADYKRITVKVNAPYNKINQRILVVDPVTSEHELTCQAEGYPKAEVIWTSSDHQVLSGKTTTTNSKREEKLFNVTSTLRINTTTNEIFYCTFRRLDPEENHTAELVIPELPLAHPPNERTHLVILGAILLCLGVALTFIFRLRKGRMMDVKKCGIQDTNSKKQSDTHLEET

As a reminder, the pIC50 is the negative decadic logarithm of the IC50, by convention in mol/L. Read a low pIC50 as a high IC50. Take `COc1nc(-c2cccc(-c3cccc(NC(=O)c4cc(C)c5c(n4)CN(CCO)CC5)c3Cl)c2Cl)cnc1CN1CC(O)C1` [Compound 21]: the pIC50 is 8.24 in assay [1] and 8.15 on PD1/PD-L1.
